Read-outs that look alike come from different tables or passages of the source.
Assays:
Test in all cases: Herbicidal activity for paddy test
Format in all cases: in vivo
ECHOR = settings: for pest or weed control at 2 g/ha: 0.002 kg/ha; for pest or weed control at 8 g/ha: 0.008 kg/ha; for pest or weed control at 31 g/ha: 0.031 kg/ha; for pest or weed control at 125 g/ha: 0.125 kg/ha; for pest or weed control at 500 g/ha: 0.500 kg/ha
Text: (§1) The sterilized sandy loam soil is filled in test pot having a surface area of 348 cm^2 for upland test conditions or 115 cm^2 for paddy test species were planted in furrows.
(§2) The herbicidal activity data were taken visually by percent control, wherein 0 signifies no herbicidal effect and 100 signifies complete kill.

MOOVA = settings: for pest or weed control at 2 g/ha: 0.002 kg/ha; for pest or weed control at 8 g/ha: 0.008 kg/ha; for pest or weed control at 31 g/ha: 0.031 kg/ha; for pest or weed control at 125 g/ha: 0.125 kg/ha; for pest or weed control at 500 g/ha: 0.500 kg/ha
Text: as §1, §2

ORYSA = settings: for plant injury at 2 g/ha: 0.002 kg/ha; for plant injury at 8 g/ha: 0.008 kg/ha; for plant injury at 31 g/ha: 0.031 kg/ha; for plant injury at 125 g/ha: 0.125 kg/ha; for plant injury at 500 g/ha: 0.500 kg/ha
Text: as §1, §2

SAGPY = settings: for pest or weed control at 2 g/ha: 0.002 kg/ha; for pest or weed control at 8 g/ha: 0.008 kg/ha; for pest or weed control at 31 g/ha: 0.031 kg/ha; for pest or weed control at 125 g/ha: 0.125 kg/ha; for pest or weed control at 500 g/ha: 0.500 kg/ha
Text: as §1, §2

SCPJU = settings: for pest or weed control at 2 g/ha: 0.002 kg/ha; for pest or weed control at 8 g/ha: 0.008 kg/ha; for pest or weed control at 31 g/ha: 0.031 kg/ha; for pest or weed control at 125 g/ha: 0.125 kg/ha; for pest or weed control at 500 g/ha: 0.500 kg/ha
Text: as §1, §2

[1] = 3 Leaf, read-out: Herbicidal activity, ORYSA (3 Leaf)
[2] = seed, read-out: Herbicidal activity, ORYSA (seed)

SMILES | pest or weed control at 2 g/ha (ECHOR) [%] | pest or weed control at 8 g/ha (ECHOR) [%] | pest or weed control at 31 g/ha (ECHOR) [%] | pest or weed control at 125 g/ha (ECHOR) [%] | pest or weed control at 500 g/ha (ECHOR) [%] | pest or weed control at 2 g/ha (MOOVA) [%] | pest or weed control at 8 g/ha (MOOVA) [%] | pest or weed control at 31 g/ha (MOOVA) [%] | pest or weed control at 125 g/ha (MOOVA) [%] | pest or weed control at 500 g/ha (MOOVA) [%] | plant injury at 2 g/ha (ORYSA; [1]) [%] | plant injury at 8 g/ha (ORYSA; [1]) [%] | plant injury at 31 g/ha (ORYSA; [1]) [%] | plant injury at 125 g/ha (ORYSA; [1]) [%] | plant injury at 500 g/ha (ORYSA; [1]) [%] | plant injury at 2 g/ha (ORYSA; [2]) [%] | plant injury at 8 g/ha (ORYSA; [2]) [%] | plant injury at 31 g/ha (ORYSA; [2]) [%] | plant injury at 125 g/ha (ORYSA; [2]) [%] | plant injury at 500 g/ha (ORYSA; [2]) [%] | other results
CCCC(=NOCC)C1=C(O)CC(c2c(C)c3c(c(C)c2Cl)CC(C)(C)C3)CC1=O (stereo not drawn) [Compound 26, 5-(6-Chloro-2,2,4,7-tetramethylindan-5-yl)-2-[1-(ethoxyimino)butyl]-3-hydroxycyclohex-2-en-1-one] | 0 | 0 | 100 | 100 | 100 | 0 | 0 | 0 | 0 | 0 | 0 | 0 | 0 | 0 | 30 | 0 | 0 | 20 | 100 | 100 | pest or weed control at 2 g/ha (SAGPY): 0%; pest or weed control at 8 g/ha (SAGPY): 0%; pest or weed control at 31 g/ha (SAGPY): 0%; pest or weed control at 125 g/ha (SAGPY): 0%; pest or weed control at 500 g/ha (SAGPY): 0%; pest or weed control at 2 g/ha (SCPJU): 0%; pest or weed control at 8 g/ha (SCPJU): 0%; pest or weed control at 31 g/ha (SCPJU): 0%; pest or weed control at 125 g/ha (SCPJU): 0%; pest or weed control at 500 g/ha (SCPJU): 40%
C=CCON=C(CCC)C1=C(O)CC(c2c(C)c3c(c(C)c2Cl)CC(C)(C)C3)CC1=O (stereo not drawn) [Compound 27] | 0 | 0 | 50 | 100 | 100 | 0 | 0 | 0 | 0 | 0 | 0 | 0 | 0 | 0 | 0 | 0 | 0 | 0 | 100 | 100 | pest or weed control at 2 g/ha (SAGPY): 0%; pest or weed control at 8 g/ha (SAGPY): 0%; pest or weed control at 31 g/ha (SAGPY): 0%; pest or weed control at 125 g/ha (SAGPY): 0%; pest or weed control at 500 g/ha (SAGPY): 0%; pest or weed control at 2 g/ha (SCPJU): 0%; pest or weed control at 8 g/ha (SCPJU): 0%; pest or weed control at 31 g/ha (SCPJU): 0%; pest or weed control at 125 g/ha (SCPJU): 0%; pest or weed control at 500 g/ha (SCPJU): 0%
C=CCON=C(CC)C1=C(O)CC(c2c(C)c(C)c3c(c2C)CC(C)(C)C3)CC1=O (stereo not drawn) [Compound 3, 5-(2,2,4,6,7-Pentamethylindan-5-yl)-2-[1-(allyloxyimino)propyl]-3-hydroxycyclohex-2-en-1-one] | 0 | 100 | 100 | 100 | 100 | 0 | 0 | 0 | 0 | 0 | 0 | 0 | 0 | 10 | 100 | 0 | 10 | 100 | 100 | 100 | pest or weed control at 2 g/ha (SAGPY): 0%; pest or weed control at 8 g/ha (SAGPY): 0%; pest or weed control at 31 g/ha (SAGPY): 0%; pest or weed control at 125 g/ha (SAGPY): 0%; pest or weed control at 500 g/ha (SAGPY): 0%; pest or weed control at 2 g/ha (SCPJU): 0%; pest or weed control at 8 g/ha (SCPJU): 0%; pest or weed control at 31 g/ha (SCPJU): 0%; pest or weed control at 125 g/ha (SCPJU): 0%; pest or weed control at 500 g/ha (SCPJU): 0%

Reference: patent US6096930A, “Herbicidal cyclohexane-1,3-dione derivatives and their preparation process” (Korea Research Institute of Chemical Technology, priority 1994, dated 2000)
